According to patent EP0738149B1 (priority 1994, dated 1995):

Assays:
mice = assay: Maximal electroshock (MES) model in mice, i.p.;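 further: Electroshock-induced convulsion model serving to demonstrate antiepileptic efficacy against generalized and partial seizures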; type: in vivo; settings: Mus musculus, ip, Table 15
rats = assay: Closed head injury in rats: motor function (Neurological Severity Status), Experiments 4A-4E
MAO-A = target: T1, MAO-A (Rattus norvegicus, UniProt P21396); settings: ex vivo brain
T1 sequence (P21396 1-526): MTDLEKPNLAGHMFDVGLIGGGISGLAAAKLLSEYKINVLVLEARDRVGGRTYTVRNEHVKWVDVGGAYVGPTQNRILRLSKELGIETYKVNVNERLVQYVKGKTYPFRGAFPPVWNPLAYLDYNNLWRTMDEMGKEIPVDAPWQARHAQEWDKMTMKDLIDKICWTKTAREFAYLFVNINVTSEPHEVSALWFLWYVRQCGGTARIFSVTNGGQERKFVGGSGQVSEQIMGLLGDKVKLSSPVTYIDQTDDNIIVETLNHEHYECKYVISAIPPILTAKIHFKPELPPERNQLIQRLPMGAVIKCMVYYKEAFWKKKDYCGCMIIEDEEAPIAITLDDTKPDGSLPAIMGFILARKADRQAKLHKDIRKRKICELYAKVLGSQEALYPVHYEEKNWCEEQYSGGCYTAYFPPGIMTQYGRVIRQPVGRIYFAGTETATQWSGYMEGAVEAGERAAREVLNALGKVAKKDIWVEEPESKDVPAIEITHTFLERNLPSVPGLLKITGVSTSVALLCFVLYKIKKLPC
Source text: The brains of some rats from each experimental group in Exp. 1 (chronic treatment of 80 days) and Exp. 2 (acute treatment of 14 days) were ex vivo analyzed for MAO-A and MAO-B activity.

hypoxic rat = assay: α-MpT-induced hypokinesia in hypoxic rat (locomotor activity), Experiments 1A-1C; type: in vivo; settings: Mean ± SEM
Protocol: Experiment 1A. Wistar male rats, 15-19 month-old, were exposed to a single hypoxic episode which is assumed to decrease the level of dopamine in the brain. […] The drugs were administered by gavage, using a special syringe equipped with rounded tip that could be directed into the stomach. The dose was contained in 0.3-0.5 mL of distilled water. The rats were pretreated for 70-80 days with daily doses of the test drugs and received intra-peritoneal (i.p.) α-MpT (α-methyl-p-tyrosine) at a dose of 100mg/kg in 0.3-0.5 mL saline. Controls received saline. α-MpT is assumed to inhibit the formation of L-Dopa from tyrosine and, consequently the formation of dopamine itself. Lack of central dopamine is expressed as hypokinesia. Following the injection of α-MpT, motor activity was recorded for the duration of 10 hours. Locomotion scores were taken in seven fully-computerized cages (26x25cm) having a grid of infra-red beams at 4 cm-intervals. Crossing of a beam initiated an electric signal which was fed into a computer. The number of crossings over a given period provided a measure of locomotion. The records gave two data categories: (a) "small movements" originating in stationary activities such as grooming and scratching and (b) "big movements" originating in ambulation and recorded as the simultaneous crossing of more than two beams."Total movements" include both categories. Counts of motor activity in the presence of α-MpT were related as percent with respect to counts in its absence in the corresponding control group (unlesioned or hypoxia-lesioned). Motor activity counts of drug-treated rats were related to the hypoxia saline-treated as 100%. All behavioral tests were performed 90-120 min. after administration of the last dose of the test compound.
Experiment 1B. […] The drugs were given i.p. • (3) Duration of the treatment: 21 days. • (4) Dose of α-MpT: 70 mg/Kg.

[1] = Exp 4A, 0.1mg/kg i.p. at 0,4,8 and 12 hours post-trauma
[2] = Exp 4B, 0.1mg/kg once a day for 14 days
[3] = Exp 1A, 0.5mg/kg/Day gavage 70-80 days, α-MpT 100mg/kg i.p., Hour 1
[4] = Exp 1A, 0.5mg/kg/Day gavage 70-80 days, α-MpT 100mg/kg i.p., Hour 2
[5] = Exp 1A, 0.5mg/kg/Day gavage 70-80 days, α-MpT 100mg/kg i.p., Hour 3
[6] = Exp 1A, 0.5mg/kg/Day gavage 70-80 days, α-MpT 100mg/kg i.p., Hour 4
[7] = Exp 1A, 0.5mg/kg/Day gavage 70-80 days, α-MpT 100mg/kg i.p., Hour 5
[8] = Exp 1A, 0.5mg/kg/Day gavage 70-80 days, α-MpT 100mg/kg i.p., Hour 7
[9] = Exp 1A, 0.5mg/kg/Day gavage 70-80 days, α-MpT 100mg/kg i.p., Hour 8
[10] = Exp 1A, 0.5mg/kg/Day gavage 70-80 days, α-MpT 100mg/kg i.p., Hour 9
[11] = Exp 1A, 0.5mg/kg/Day gavage 70-80 days, α-MpT 100mg/kg i.p., Hour 10
[12] = Exp 1B, 0.3 mg/Kg daily i.p. 21 days, α-MpT 70 mg/Kg, Hour 1
[13] = Exp 1B, 0.3 mg/Kg daily i.p. 21 days, α-MpT 70 mg/Kg, Hour 2
[14] = Exp 1B, 0.3 mg/Kg daily i.p. 21 days, α-MpT 70 mg/Kg, Hour 3
[15] = Exp 1B, 0.3 mg/Kg daily i.p. 21 days, α-MpT 70 mg/Kg, Hour 4
[16] = Exp 1B, 0.3 mg/Kg daily i.p. 21 days, α-MpT 70 mg/Kg, Hour 5
[17] = Exp 1B, 0.3 mg/Kg daily i.p. 21 days, α-MpT 70 mg/Kg, Hour 6
[18] = Exp 1B, 0.3 mg/Kg daily i.p. 21 days, α-MpT 70 mg/Kg, Hour 7
[19] = Exp 1B, 0.3 mg/Kg daily i.p. 21 days, α-MpT 70 mg/Kg, Hour 8
[20] = Exp 1B, 0.3 mg/Kg daily i.p. 21 days, α-MpT 70 mg/Kg, Hour 9
[21] = Exp 1B, 0.3 mg/Kg daily i.p. 21 days, α-MpT 70 mg/Kg, Hour 10

Structure (SMILES): CC(=O)N[C@@H]1CCc2ccccc21 [Example 18, (R)-N-Acetyl-1-aminoindan]
- ED50 (mice): 31 mg/kg

Structure (SMILES): N[C@@H]1CCc2ccccc21 [R-AI, (R)-1-aminoindan]
- NSS 1hr (rats; [1]): 16.8
- NSS 24hr (rats; [1]): 8.3
- ΔNSS (rats; Exp 4A, 0.1mg/kg i.p. at 0,4,8 and 12 hours post-trauma, change 1 hour to 24 hours): 8.5±0.5
- NSS at 1hr (rats; [2]): 17.7±0.5
- ΔNSS at 24hr (rats; [2]): 7.3±0.8
- ΔNSS at 48hr (rats; [2]): 9.3±0.8
- ΔNSS at 7d (rats; [2]): 11.8±0.5
- ΔNSS at 14d (rats; [2]): 14.0±0.4
- NSS 1hr (rats; Exp 4C, 0.03 mg/kg): 16.3
- NSS 24hr (rats; Exp 4C, 0.03 mg/kg): 10.4
- ΔNSS (rats; Exp 4C, 0.03 mg/kg): 5.9±0.3
- NSS 1hr (rats; Exp 4C, 0.1 mg/kg): 16.2
- NSS 24hr (rats; Exp 4C, 0.1 mg/kg): 10.4
- ΔNSS (rats; Exp 4C, 0.1 mg/kg): 5.8±0.4
- NSS 1hr (rats; Exp 4C, 0.3 mg/kg): 16.6
- NSS 24hr (rats; Exp 4C, 0.3 mg/kg): 8.5
- ΔNSS (rats; Exp 4C, 0.3 mg/kg): 8.1±0.5
- NSS 1hr (rats; Exp 4C, 1.0 mg/kg): 16.8
- NSS 24hr (rats; Exp 4C, 1.0 mg/kg): 8.8
- ΔNSS (rats; Exp 4C, 1.0 mg/kg): 8.0±0.5
- NSS 1hr (rats; Exp 4C, 3.0 mg/kg): 16.4
- NSS 24hr (rats; Exp 4C, 3.0 mg/kg): 7.8
- ΔNSS (rats; Exp 4C, 3.0 mg/kg): 8.6±0.7
- ΔNSS (rats; Exp 4D, 1mg/kg, times of administration 0): 8.8±10.8
- ΔNSS (rats; Exp 4D, 1mg/kg, times of administration 0 + 4h): 8.0±1.0
- ΔNSS (rats; Exp 4D, 1mg/kg, times of administration 0 + 8h): 8.0±0.1
- ΔNSS (rats; Exp 4D, 1mg/kg, times of administration 0 + 12h): 8.7±0.6
- ΔNSS (rats; Exp 4D, 1mg/kg, times of administration 0,4,8,12h): 8.2±0.7
- ΔNSS (rats; Exp 4E, 1mg/kg given + 1h post head trauma): 8.4±0.6
- ΔNSS (rats; Exp 4E, 1mg/kg given + 2h post head trauma): 7.0±0.5
- ΔNSS (rats; Exp 4E, 1mg/kg given + 3h post head trauma): 7.4±0.5
- % inhibition of MAO A acute treatment (MAO-A; acute treatment of 14 days): 13%
- % inhibition of MAO A chronic treatment (MAO-A; chronic treatment of 80 days): 6%

Structure (SMILES): C#CCN(C)[C@H](C)Cc1ccccc1 [deprenyl]
- Locomotor activity after α-MpT treatment, recorded as big movements (hypoxic rat; [3]): 61 ± 15%
- Locomotor activity after α-MpT treatment, recorded as total movements (hypoxic rat; [3]): 88 ± 23%
- Locomotor activity after α-MpT treatment, recorded as big movements (hypoxic rat; [4]): 103 ± 22%
- Locomotor activity after α-MpT treatment, recorded as total movements (hypoxic rat; [4]): 131 ± 30%
- Locomotor activity after α-MpT treatment, recorded as big movements (hypoxic rat; [5]): 184 ± 39%
- Locomotor activity after α-MpT treatment, recorded as total movements (hypoxic rat; [5]): 141 ± 26%
- Locomotor activity after α-MpT treatment, recorded as big movements (hypoxic rat; [6]): 85 ± 34%
- Locomotor activity after α-MpT treatment, recorded as total movements (hypoxic rat; [6]): 191 ± 45%
- Locomotor activity after α-MpT treatment, recorded as big movements (hypoxic rat; [7]): 171 ± 61%
- Locomotor activity after α-MpT treatment, recorded as total movements (hypoxic rat; [7]): 229 ± 40%
- Locomotor activity after α-MpT treatment, recorded as big movements (hypoxic rat; Exp 1A, 0.5mg/kg/Day gavage 70-80 days, α-MpT 100mg/kg i.p., Hour 6): 65 ± 17%
- Locomotor activity after α-MpT treatment, recorded as big movements (hypoxic rat; [8]): 96 ± 29%
- Locomotor activity after α-MpT treatment, recorded as total movements (hypoxic rat; [8]): 204 ± 7%
- Locomotor activity after α-MpT treatment, recorded as big movements (hypoxic rat; [9]): 91 ± 40%
- Locomotor activity after α-MpT treatment, recorded as total movements (hypoxic rat; [9]): 131 ± 23%
- Locomotor activity after α-MpT treatment, recorded as big movements (hypoxic rat; [10]): 84 ± 23%
- Locomotor activity after α-MpT treatment, recorded as total movements (hypoxic rat; [10]): 137 ± 21%
- Locomotor activity after α-MpT treatment, recorded as big movements (hypoxic rat; [11]): 29 ± 10%
- Locomotor activity after α-MpT treatment, recorded as total movements (hypoxic rat; [11]): 116 ± 22%
- Locomotor activity after α-MpT treatment, recorded as big movements (hypoxic rat; [12]): 70 ± 10%
- Locomotor activity after α-MpT treatment, recorded as total movements (hypoxic rat; [12]): 68 ± 9%
- Locomotor activity after α-MpT treatment, recorded as big movements (hypoxic rat; [13]): 91 ± 19%
- Locomotor activity after α-MpT treatment, recorded as total movements (hypoxic rat; [13]): 95 ± 11%
- Locomotor activity after α-MpT treatment, recorded as big movements (hypoxic rat; [14]): 85 ± 19%
- Locomotor activity after α-MpT treatment, recorded as total movements (hypoxic rat; [14]): 126 ± 22%
- Locomotor activity after α-MpT treatment, recorded as big movements (hypoxic rat; [15]): 88 ± 23%
- Locomotor activity after α-MpT treatment, recorded as total movements (hypoxic rat; [15]): 118 ± 20%
- Locomotor activity after α-MpT treatment, recorded as big movements (hypoxic rat; [16]): 87 ± 11%
- Locomotor activity after α-MpT treatment, recorded as total movements (hypoxic rat; [16]): 83 ± 24%
- Locomotor activity after α-MpT treatment, recorded as big movements (hypoxic rat; [17]): 67 ± 8%
- Locomotor activity after α-MpT treatment, recorded as total movements (hypoxic rat; [17]): 78 ± 9%
- Locomotor activity after α-MpT treatment, recorded as big movements (hypoxic rat; [18]): 62 ± 9%
- Locomotor activity after α-MpT treatment, recorded as total movements (hypoxic rat; [18]): 56 ± 7%
- Locomotor activity after α-MpT treatment, recorded as big movements (hypoxic rat; [19]): 70 ± 9%
- Locomotor activity after α-MpT treatment, recorded as total movements (hypoxic rat; [19]): 85 ± 13%
- Locomotor activity after α-MpT treatment, recorded as big movements (hypoxic rat; [20]): 132 ± 24%
- Locomotor activity after α-MpT treatment, recorded as total movements (hypoxic rat; [20]): 111 ± 12%
- Locomotor activity after α-MpT treatment, recorded as big movements (hypoxic rat; [21]): 54 ± 13%
- Locomotor activity after α-MpT treatment, recorded as total movements (hypoxic rat; [21]): 61 ± 12%
